Assay results from ChEMBL document CHEMBL3132824, “Discovery of novel pyridazinylthioacetamides as potent HIV-1 NNRTIs using a structure-based bioisosterism approach” (Medchemcomm, 2013).
pEC50, pIC50: −log10 of the molar value.

Assays:
[1] = Selectivity ratio of CC50 for HIV-2 ROD mock-infected human MT4 cells to EC50 for HIV-2 ROD infected in human MT4 cells; type: ADME, cell-based; details: read-out: Ratio CC50/EC50
[2] = Selectivity ratio of CC50 for HIV-1 3B mock-infected human MT4 cells to EC50 for HIV-1 3B infected in human MT4 cells; type: ADME, cell-based; details: read-out: Ratio CC50/EC50
[3] = Cytotoxicity against HIV-2 ROD mock-infected human MT4 cells assessed as reduction in cell viability by MTT assay; type: cell-based; details: HIV-2 ROD mock-infected MT4 cells
[4] = Cytotoxicity against HIV-1 3B mock-infected human MT4 cells assessed as reduction in cell viability by MTT assay; type: cell-based; details: HIV-1 3B mock-infected MT4 cells
[5] = system: Human immunodeficiency virus 2; experiment: Antiviral activity against HIV-2 ROD infected in human MT4 cells assessed as inhibition of virus-induced cytopathicity by MTT assay; type: functional, organism-based; details: Human immunodeficiency virus 2, ISOLATE ROD
[6] = system: Human immunodeficiency virus 1; experiment: Antiviral activity against HIV-1 3B infected in human MT4 cells assessed as inhibition of virus-induced cytopathicity by MTT assay; type: functional, organism-based; details: Human immunodeficiency virus 1, 3B
[7] = target: Human immunodeficiency virus type 1 reverse transcriptase (Human immunodeficiency virus 1, UniProt Q72547); experiment: Inhibition of purified recombinant HIV-1 reverse transcriptase assessed as inhibition of biotin-dUTP incorporation using poly(rC)-oligo(dG) as template primer

O=C(CSc1nnccc1-c1cccc2ccccc12)Nc1ccccc1F
selectivity ratio [1]: < 1 | selectivity ratio [2]: 799 | CC50 [3]: 241 µM | CC50 [4]: 204 µM | pEC50 [5]: < 3.62 | pEC50 [6]: 6.59

Cc1ccc(NC(=O)CSc2nnccc2-c2cccc3ccccc23)c(Br)c1
selectivity ratio [1]: < 1 | selectivity ratio [2]: 929 | CC50 [3]: 215 µM | CC50 [4]: 182 µM | pEC50 [5]: < 3.67 | pEC50 [6]: 6.70

Cc1cn([C@H]2C[C@H](N=[N+]=[N-])[C@@H](CO)O2)c(=O)[nH]c1=O [ZIDOVUDINE]
selectivity ratio [1]: 56900 | selectivity ratio [2]: 12200 | pEC50 [5]: 8.35 | pEC50 [6]: 7.68

O=C(CSc1nnccc1-c1cccc2ccccc12)Nc1cccnc1Cl
selectivity ratio [1]: < 1 | selectivity ratio [2]: 573 | CC50 [3]: 164 µM | CC50 [4]: 156 µM | pEC50 [5]: < 3.78 | pEC50 [6]: 6.57

O=C(CSc1nnccc1-c1cccc2ccccc12)Nc1ccccc1
selectivity ratio [1]: < 1 | selectivity ratio [2]: 105 | CC50 [3]: 174 µM | CC50 [4]: 203 µM | pEC50 [5]: < 3.76 | pEC50 [6]: 5.71

O=C(CSc1nnccc1-c1cccc2ccccc12)Nc1ccccc1Cl
selectivity ratio [1]: < 1 | selectivity ratio [2]: 177 | CC50 [3]: 35 µM | CC50 [4]: 34.2 µM | pEC50 [5]: < 4.46 | pEC50 [6]: 6.72

O=C(CSc1nnccc1-c1cccc2ccccc12)N1CCCc2ccccc21
selectivity ratio [1]: < 1 | selectivity ratio [2]: < 1 | CC50 [3]: 35 µM | CC50 [4]: 34.5 µM | pEC50 [5]: < 4.46 | pEC50 [6]: < 4.46

Cc1ccnc2c1NC(=O)c1cccnc1N2C1CC1 [NEVIRAPINE]
CC50 [3]: > 15 µM | CC50 [4]: > 15 µM

O=C1Nc2ccc(Cl)cc2[C@@](C#CC2CC2)(C(F)(F)F)O1 [EFAVIRENZ]
selectivity ratio [2]: > 1190 | CC50 [3]: > 6.34 µM | CC50 [4]: > 6.34 µM

Cc1ccccc1NC(=O)CSc1nnccc1-c1cccc2ccccc12
selectivity ratio [1]: < 1 | selectivity ratio [2]: 130 | CC50 [3]: 150 µM | CC50 [4]: 142 µM | pEC50 [5]: < 3.82 | pEC50 [6]: 5.96

O=C(CSc1nnccc1-c1cccc2ccccc12)Nc1ccc(Cl)cc1Cl
selectivity ratio [1]: < 1 | selectivity ratio [2]: > 684 | CC50 [3]: 232 µM | CC50 [4]: > 284 µM | pEC50 [5]: < 3.64 | pEC50 [6]: 6.38

COC(=O)c1ccc(NC(=O)CSc2nnccc2-c2cccc3ccccc23)c(Br)c1
selectivity ratio [1]: < 1 | selectivity ratio [2]: 1110 | CC50 [3]: > 246 µM | CC50 [4]: 159 µM | pEC50 [5]: < 3.61 | pEC50 [6]: 6.85

CCOC(=O)c1ccc(NC(=O)CSc2nnccc2-c2cccc3ccccc23)c(Br)c1
selectivity ratio [1]: < 1 | selectivity ratio [2]: 420 | CC50 [3]: > 239 µM | CC50 [4]: 237 µM | pEC50 [5]: < 3.62 | pEC50 [6]: 6.25

O=C(CSc1nnccc1-c1cccc2ccccc12)Nc1ccccc1[N+](=O)[O-]
pIC50 [7]: 5.39 | selectivity ratio [1]: < 1 | selectivity ratio [2]: 2150 | CC50 [3]: 135 µM | CC50 [4]: 99.9 µM | pEC50 [5]: < 3.87 | pEC50 [6]: 7.34

CC(C)Nc1cccnc1N1CCN(C(=O)c2cc3cc(NS(C)(=O)=O)ccc3[nH]2)CC1 [DELAVIRDINE]
selectivity ratio [2]: > 1100 | CC50 [3]: > 36.2 µM | CC50 [4]: > 36.2 µM

CC(=O)c1ccc(NC(=O)CSc2nnccc2-c2cccc3ccccc23)c(Br)c1
selectivity ratio [1]: < 1 | selectivity ratio [2]: 370 | CC50 [3]: 48.5 µM | CC50 [4]: 46.3 µM | pEC50 [5]: < 4.31 | pEC50 [6]: 6.89

O=C(CSc1nnccc1-c1cccc2ccccc12)N1CCc2ccccc2C1
selectivity ratio [1]: < 1 | selectivity ratio [2]: 29 | CC50 [3]: 36.5 µM | CC50 [4]: 34 µM | pEC50 [5]: < 4.44 | pEC50 [6]: 5.94

O=C(CSc1nnccc1-c1cccc2ccccc12)Nc1ccccc1Br
selectivity ratio [1]: < 1 | selectivity ratio [2]: 151 | CC50 [3]: 31.3 µM | CC50 [4]: 31.5 µM | pEC50 [5]: < 4.50 | pEC50 [6]: 6.68

Nc1ccn([C@H]2CC[C@@H](CO)O2)c(=O)n1 [ZALCITABINE]
selectivity ratio [1]: > 74 | selectivity ratio [2]: > 93 | CC50 [3]: > 94.7 µM | CC50 [4]: > 94.7 µM | pEC50 [5]: 5.89

O=C(CSc1nnccc1-c1cccc2ccccc12)c1ccc(Cl)cc1Cl
selectivity ratio [1]: < 1 | selectivity ratio [2]: 10 | CC50 [3]: 55 µM | CC50 [4]: 54.6 µM | pEC50 [5]: < 4.26 | pEC50 [6]: 5.26

Cc1ccc(NC(=O)CSc2nnccc2-c2cccc3ccccc23)c([N+](=O)[O-])c1
selectivity ratio [1]: < 1 | selectivity ratio [2]: 1440 | CC50 [3]: 244 µM | CC50 [4]: 204 µM | pEC50 [5]: < 3.61 | pEC50 [6]: 6.85
